Measured values as given in patent US20230256058A1 (MAPI PHARMA LTD., priority 2020, published 2023).

How the values were obtained:
[1] = in vivo; cited from earlier work
[2] = Plasma concentrations of liraglutide formulations in db/db mice; type: in vivo; conditions: 200 μg/kg SC daily
Experimental: Treatment Groups: 1. Naïve control normal mice (n=6) • 2. Placebo (vehicle) control db/db mice (n=8) • 3.
• Ad lib fed blood glucose levels were recorded every 3rd day throughout the study period i.e. on Day-1, Day-3, Day-6, Day-9, Day-12, Day-15, Day-18, Day-21, Day-24, and Day-27. […] (before treatment) and 3 hr. post treatment. • On Day-1 and Day-28, blood samples were collected for the measurement of HbA1C levels. • Body weight and feed intake were recorded every day throughout treatment period.

[3] = cited from earlier work

Plasma levels (in words) ([2]; post 3 hr. of injection)	Plasma levels (in words) ([2]; post 24 hr. of treatment)	Compound	Pharmacokinetic half-life [1] [min]	Steady state therapeutic plasma concentration ([3]; VICTOZA Prescribing Information)	Human range for clinically effective concentrations ([3]; human, Ingwersen S. H. et al. J. Clin. Pharmacol. 2012) [nmol/L]
		GLP-1	2 to 5		
increase in plasma levels	detectable plasma levels	CCCCCCCCCCCCCCCC(=O)N[C@@H](CCC(=O)NCCCC[C@H](NC(=O)[C@H](C)NC(=O)[C@H](C)NC(=O)[C@H](CCC(N)=O)NC(=O)CNC(=O)[C@H](CCC(=O)O)NC(=O)[C@H](CC(C)C)NC(=O)[C@H](Cc1ccc(O)cc1)NC(=O)[C@H](CO)NC(=O)[C@H](CO)NC(=O)[C@@H](NC(=O)[C@H](CC(=O)O)NC(=O)[C@H](CO)NC(=O)[C@@H](NC(=O)[C@H](Cc1ccccc1)NC(=O)[C@@H](NC(=O)CNC(=O)[C@H](CCC(=O)O)NC(=O)[C@H](C)NC(=O)[C@@H](N)Cc1cnc[nH]1)[C@@H](C)O)[C@@H](C)O)C(C)C)C(=O)N[C@@H](CCC(=O)O)C(=O)N[C@@H](Cc1ccccc1)C(=O)N[C@H](C(=O)N[C@@H](C)C(=O)N[C@@H](Cc1c[nH]c2ccccc12)C(=O)N[C@@H](CC(C)C)C(=O)N[C@H](C(=O)N[C@@H](CCCNC(=N)N)C(=O)NCC(=O)N[C@@H](CCCNC(=N)N)C(=O)NCC(=O)O)C(C)C)[C@@H](C)CC)C(=O)O [L-API, liraglutide]		about 128 ng/mL	5 to 45
